According to patent US9676761B2, “Difluoroethyl-oxazole substituted bridged spiro[2.4]heptane derivatives as ALX receptor agonists” (ACTELION PHARMACEUTICALS LTD, priority 2013, dated 2017):
pEC50: −log10 of the molar value.

Legend:
[1] = target: T1, human ALX receptor (Homo sapiens, UniProt P25090); test: FLIPR assay (ALX receptor), intracellular calcium measurements in HEK293-hALXR-Gα16 cells; assay type: cell-based; settings: median of n replications, normalized to WKYMVm 10 nM, read-out: EC50 (agonistic activity with respect to the ALX receptor)
T1 construct: expressed in transfected cells; host or cells: HEK293 (HEK293-hALXR-Gα16)
T1 sequence (P25090 1-351): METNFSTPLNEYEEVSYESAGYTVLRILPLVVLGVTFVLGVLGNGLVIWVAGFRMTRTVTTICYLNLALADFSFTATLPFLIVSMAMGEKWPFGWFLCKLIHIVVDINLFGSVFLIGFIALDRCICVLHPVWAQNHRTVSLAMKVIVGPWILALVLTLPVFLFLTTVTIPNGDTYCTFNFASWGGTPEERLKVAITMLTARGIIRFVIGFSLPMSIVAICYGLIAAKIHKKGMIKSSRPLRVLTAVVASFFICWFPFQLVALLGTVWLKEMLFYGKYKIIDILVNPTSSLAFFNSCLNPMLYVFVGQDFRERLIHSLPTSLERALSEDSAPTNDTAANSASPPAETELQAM
Experimental: FLIPR Assay (ALX Receptor)
(§1) Intracellular Calcium Measurements:
(§2) Cells expressing recombinant human ALX receptor and the G-protein Gα16 (HEK293-hALXR-Gα16) were grown to 80% confluency in Growing Medium (GM). Cells were detached from culture dishes with a cell dissociation buffer (Invitrogen, 13151-014), and collected by centrifugation at 1,000 rpm at rt for 5 min in Assay Buffer (AB) (equal parts of Hank's BSS (Gibco, 14065-049) and DMEM without Phenol Red (Gibco, 11880-028)). After 60 min incubation at 37° C. under 5% CO2 in AB supplemented with 1 μM Fluo-4 (AM) (Invitrogen, F14202) and 20 mM HEPES (Gibco, 15630-056), the cells were washed and resuspended in AB. They were then seeded onto 384-well FLIPR assay plates (Greiner, 781091) at 50,000 cells in 70 μl per well and sedimented by centrifugation at 1,000 rpm for 1 min. Stock solutions of test compounds were made up at a concentration of 10 mM in DMSO, and serially diluted in AB to concentrations required for activation dose response curves. WKYMVm (Phoenix Peptides) was used as a reference agonist. […] Changes in fluorescence were monitored before and after the addition of test compounds at lex=488 nm and lem=540 nm. […]

[2] = Plasma stability assay (stability in serum), human; assay type: in vitro ADME; settings: pH 7.4, 37° C., 1 μM compound; for remaining concentration at Tlast: Tlast 6 h
Experimental: (§3) Rat or human serum adjusted at pH 7.4 with lactic acid or ammonium hydroxide, were equilibrated at 37° C. under orbital shaking in an incubator containing 5% CO2. The reaction was initiated by the addition of 1 μM of compounds (1 μl of 1 mM stock solution in DMSO in 999 μl of plasma). At 0.01 h, 0.25 h, 0.5 h, 1 h, 2 h, 4 h and 6 h aliquots (30 μl) were transferred in a 96 well plate containing 90 μl MeOH placed on ice to stop the reaction. After vortexing for 20 min at 1400 rpm on an Eppendorf thermomixer, the plates were centrifuged at 3220 g for 20 min at 4° C. and the supernatants were analyzed with LC-MS/MS. Calibration samples in serum containing 0.1% of dichlorvos (2,2-dichlorovinyl-dimethyl-phosphate) were prepared and analysed in parallel to the incubation samples to allow the quantification. Half lives (T1/2) in hours were then calculated. In addition the remaining concentration of the respective compound after time Tlast relative to the concentration at the beginning has been determined (table 3).

[3] = target: T2, human FPR1 receptor (Homo sapiens, UniProt P21462); test: FLIPR assay (FPR1 receptor), intracellular calcium measurements in HEK293-hFPR1-Gα16 cells; assay type: cell-based; settings: median of n replications, normalized to WKYMVm 10 nM, read-out: EC50 (agonistic activity with respect to the FPR1 receptor)
T2 construct: expressed in transfected cells; host or cells: HEK293 (HEK293-hFPR1-Gα16)
T2 sequence (P21462 1-350): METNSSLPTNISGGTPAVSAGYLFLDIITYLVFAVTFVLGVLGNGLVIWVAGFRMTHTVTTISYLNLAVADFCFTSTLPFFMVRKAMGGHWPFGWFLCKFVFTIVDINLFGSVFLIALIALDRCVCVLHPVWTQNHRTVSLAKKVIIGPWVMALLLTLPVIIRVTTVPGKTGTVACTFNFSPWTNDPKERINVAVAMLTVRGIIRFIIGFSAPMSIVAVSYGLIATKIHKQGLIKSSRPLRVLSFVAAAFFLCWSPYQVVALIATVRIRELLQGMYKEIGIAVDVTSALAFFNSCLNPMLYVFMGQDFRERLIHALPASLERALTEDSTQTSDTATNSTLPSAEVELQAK
Experimental: FLIPR Assay (FPR1 Receptor)
as §1
as §2, with “FPR1” for “ALX”, “(HEK293-hFPR1-Gα16)” for “(HEK293-hALXR-Gα16)”

[4] = Plasma protein binding assay (Rapid Equilibrium Dialysis), human; assay type: in vitro ADME; settings: 1 μM, dialysis 4 h at 37° C., pH 7.4
Experimental: Plasma Protein Binding Assay
Compounds were added to human plasma adjusted at pH 7.4 with lactic acid or ammonium hydroxide (final concentration 1 μM) and dialyzed with RED (Rapid Equilibrium Dialysis) devices against Phosphate Buffered Saline (0.1M sodium Phosphate and 0.15 M sodium chloride) 0.1 M pH 7.4 for 4 h at 37° C. in an incubator containing 5% CO2. Following dialysis, an aliquot of plasma and buffer were diluted with an equal volume of the opposite matrix to nullify the matrix effect and a calibration was prepared in the mixed matrix. Aliquots of samples and calibrations (30 μl) were transferred in a 96 well plate containing 90 μl MeOH to precipitate the proteins. After vortexing for 20 min at 1400 rpm on an Eppendorf thermomixer, the plates were centrifuged at 3220 g for 20 min at 4° C. and the supernatants were analyzed with LC-MS/MS. Concentrations of analyte were used for the calculation of the fraction bound to plasma. Propranolol [(±)-1-isopropylamino-3-(1-naphthyloxy)-2-propanol], a reference compound, was run in parallel.

[5] = Plasma protein binding assay (Rapid Equilibrium Dialysis), rat; assay type: in vitro ADME; settings: 1 μM, dialysis 4 h at 37° C., pH 7.4
[6] = Plasma stability assay (stability in serum), rat; assay type: in vitro ADME; settings: pH 7.4, 37° C., 1 μM compound; for remaining concentration at Tlast: Tlast 6 h
Experimental: as §3

| Substance | pEC50 [1] | remaining concentration at Tlast [2] [%] | T1/2 [2] [h] | pEC50 [3] | Plasma protein binding [4] [%] | Plasma protein binding [5] [%] | remaining concentration at Tlast [6] [%] | T1/2 [6] [h] |
| --- | --- | --- | --- | --- | --- | --- | --- | --- |
| (1S,2R,3R,4R)—N^2—((4-(1,1-Difluoroethyl)oxazol-2-yl)methyl)-N^3-(trans-3-fluoropiperidin-4-yl)spiro[bicyclo[2.2.1]heptane-7,1′-cyclopropane]-2,3-dicarboxamide [Example 1] | 8.18 | 97 | >6 | < 5.22 | 54.8 | 50.7 | >100 | >6 |
| (1S,2R,3R,4R)—N^2—((4-(1,1-Difluoroethyl)oxazol-2-yl)methyl)-N^3-(trans-3-fluoropiperidin-4-yl)spiro[bicyclo[2.2.1]heptane-7,1′-cyclopropane]-2,3-dicarboxamide [Example 2] | 8.44 | >100 | >6 | < 5.15 | 63.8 | 47.7 | >100 | >6 |
